Common to all, as to format: in vivo
The test system of series [1] is Cabbage Looper (Trichoplusia ni, TRIPNI). Briefly: Bioassay on Cabbage Looper (CL), 128-well diet tray assay. The following applies: 168 h, 50 μg/cm^2 on artificial diet, second instar larvae, 25° C., five to seven days, average of eight wells, read-out: CL % Control (or Mortality) rating. The method in brief: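 Second-instar T. ni larvae (one to five per well) were placed on artificial diet treated with 50 μg/cm^2 compound, applied in 90:10 acetone-water and dried. Trays were held five to seven days at 25 °C under 14:10 light-dark. Percent mortality per well was averaged over eight wells.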

Series [2] relates to Yellow Fever Mosquito (Aedes aegypti, AEDSAE). As to the kind of experiment: Bioassay on Yellow Fever Mosquito (YFM) larvae, 96-well plate. The note with it: about 1 day-old larvae, room temperature, 3 days, scored on mortality. The method in brief: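 Compound stocks at 4000 ppm in DMSO were diluted with 90:10 water/acetone, and 15 μL aliquots were dispensed into six replicate plates. About 1-day-old larvae in liver-powder water were added per well. Plates were covered and held at room temperature for 3 days before each well was scored for mortality.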

Series [3] deals with Green Peach Aphid (Myzus persicae, MYZUPE). Briefly: Bioassay on Green Peach Aphid (GPA), foliar spray on cabbage seedlings. The note with it: 72 h, 200 ppm spray on infested cabbage seedlings, three days, Abbott corrected % control, read-out: GPA % Control (or Mortality) rating. How it is done: Certain molecules disclosed in this document were tested against GPA using procedures described in the following example. In the reporting of the results, the “GPA & YFM Rating Table” was used (See Table Section).
Cabbage seedlings grown in 3-inch pots, with 2-3 small (3-5 cm) true leaves, were used as test substrate. The seedlings were infested with 20-50 GPA (wingless adult and nymph stages) one day prior to chemical application. Four pots with individual seedlings were used for each treatment. Test molecules (2 mg) were dissolved in 2 mL of acetone/methanol (1:1) solvent, forming stock solutions of 1000 ppm test molecule. The stock solutions were diluted 5× with 0.025% Tween 20 in water to obtain the solution at 200 ppm test molecule. A hand-held aspirator-type sprayer was used for spraying a solution to both sides of […] leaves until runoff. Reference plants (solvent check) were sprayed with the diluent only containing 20% by volume of acetone/methanol (1:1) solvent. Treated plants were held in a holding room for three days at approximately 25° C. and ambient relative humidity (RH) prior to grading. Evaluation was conducted by counting the number of live aphids per plant under a microscope. Percent control was measured using Abbott's correction formula (W. S. Abbott, “A Method of Computing the Effectiveness of an Insecticide” J. Econ. Entomol. 18 (1925), pp. 265-267) as follows. Corrected % Control=100*(X−Y)/X where X=No. of live aphids on solvent check plants and Y=No. of live aphids on treated plants. The results are indicated in the table entitled “Table ABC: Biological Results” (See Table Section).

In series [4] the test system is Beet Armyworm (Spodoptera exigua, LAPHEG). As to the kind of experiment: Bioassay on Beet Armyworm (BAW), 128-well diet tray assay. The note with it: 168 h, 50 μg/cm^2 on artificial diet, second instar larvae, 25° C., five to seven days, average of eight wells, read-out: BAW % Control (or Mortality) rating. The method in brief: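 Artificial diet surface-treated with 50 μg/cm^2 test molecule in 90:10 acetone-water, dried, then infested with one to five second instar larvae per well. Held covered and vented at 25° C., 14:10 light-dark for five to seven days; percent mortality recorded per well and averaged over eight wells.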

The text below walks through data of US9795140B2, “Molecules having pesticidal utility, and intermediates, compositions, and processes, related thereto” (priority 2015, dated 2017).

A word on the mortality: it is the share of the test organisms that died. Regarding `CNC(=O)c1cc(NC(=O)[C@H]2[C@H](c3cc(Cl)cc(Cl)c3)C2(Cl)Cl)ccc1C(F)(F)F` (relative stereo) [F2, trans-5-(2,2-Dichloro-3-(3,5-dichlorophenyl)cyclopropane-1-carboxamido)-N-methyl-2-(trifluoromethyl)benzamide], the mortality at 50 µg/cm2 in series [1] and in series [4] was 50 to 100% throughout. In addition, the “YFM % Control (or Mortality) rating” value in series [2] is “A (80-100)”. Besides, the mortality at 200 ppm in series [3] is 0 to 80%.
Consider `O=C(NCC(F)(F)F)c1cc(NC(=O)[C@H]2[C@H](c3cc(Cl)cc(Cl)c3)C2(Cl)Cl)ccc1Cl` (relative stereo) [F4, trans-2-Chloro-5-(2,2-dichloro-3-(3,5-dichlorophenyl)cyclopropane-1-carboxamido)-N-(2,2,2-trifluoroethyl)benzamide], for which the mortality at 50 µg/cm2 in series [1] and in series [4] was 50 to 100% each time. In addition, in series [2], the “YFM % Control (or Mortality) rating” value is listed as “A (80-100)”. Besides, the mortality at 200 ppm in series [3] was 80 to 100%.
Regarding `O=C(NCc1cccnc1)c1cc(NC(=O)[C@H]2[C@H](c3cc(Cl)cc(Cl)c3)C2(Cl)Cl)ccc1Cl` (relative stereo) [F6, trans-2-Chloro-5-(2,2-dichloro-3-(3,5-dichlorophenyl)cyclopropane-1-carboxamido)-N-(pyridin-3-ylmethyl)benzamide], the mortality at 50 µg/cm2 in series [1] and in series [4] was 50 to 100% in each case. Further, the “YFM % Control (or Mortality) rating” value in series [2] is listed as “A (80-100)”. In addition, the mortality at 200 ppm in series [3] lay within 0 to 80%.
Take `O=C(NCc1ccncc1)c1cc(NC(=O)[C@H]2[C@H](c3cc(Cl)cc(Cl)c3)C2(Cl)Cl)ccc1Cl` (relative stereo) [F12, trans-2-Chloro-5-(2,2-dichloro-3-(3,5-dichlorophenyl)cyclopropane-1-carboxamido)-N-(pyridin-4-ylmethyl)benzamide]: the mortality at 50 µg/cm2 in series [1] and in series [4] was 50 to 100% throughout. Besides, the “YFM % Control (or Mortality) rating” value in series [2] was “A (80-100)”. Moreover, the mortality at 200 ppm in series [3] lay within 0 to 80%.
Regarding `O=C(NCc1ccncc1)c1cc(NC(=O)[C@H]2[C@H](c3cc(Cl)c(Cl)c(Cl)c3)C2(Cl)Cl)ccc1Cl` (relative stereo) [F13, trans-2-Chloro-5-(2,2-dichloro-3-(3,4,5-trichlorophenyl)cyclopropane-1-carboxamido)-N-(pyridin-4-ylmethyl)benzamide], the mortality at 50 µg/cm2 in series [1] and in series [4] was 50 to 100% each time. For the same compound, in series [2], the “YFM % Control (or Mortality) rating” value was “A (80-100)”. Also, in series [3], the mortality at 200 ppm lay in the range of 0 to 80%.
As to `C=CCONC(=O)c1cc(NC(=O)[C@H]2[C@H](c3ccc(Cl)c(Cl)c3)C2(Cl)Cl)ccc1Cl` (relative stereo) [F14, trans-N-(Allyloxy)-2-chloro-5-(2,2-dichloro-3-(3,4-dichlorophenyl)cyclopropane-1-carboxamido)benzamide], the mortality at 50 µg/cm2 in series [1] and in series [4] was 50 to 100% each time. For the same compound, in series [2], the “YFM % Control (or Mortality) rating” value is given as “A (80-100)”. The mortality at 200 ppm in series [3] lay within 0 to 80%.
Take `O=C(NCc1ccccc1)c1cc(NC(=O)[C@H]2[C@H](c3cc(Cl)cc(Cl)c3)C2(Cl)Cl)ccc1Cl` (relative stereo) [F27, trans-N-benzyl-2-chloro-5-(2,2-dichloro-3-(3,5-dichlorophenyl)cyclopropane-1-carboxamido)benzamide]: the mortality at 50 µg/cm2 in series [1] and in series [4] was 50 to 100% each time. The “YFM % Control (or Mortality) rating” value in series [2] is on record as “A (80-100)”. In addition, the mortality at 200 ppm in series [3] lay in the range of 0 to 80%.
Turning to `O=C(NCc1ccc(F)cc1)c1cc(NC(=O)[C@H]2[C@H](c3cc(Cl)cc(Cl)c3)C2(Cl)Cl)ccc1Cl` (relative stereo) [F28, trans-2-Chloro-5-(2,2-dichloro-3-(3,5-dichlorophenyl)cyclopropane-1-carboxamido)-N-(4-fluorobenzyl)benzamide], the mortality at 50 µg/cm2 in series [1] and in series [4] was 50 to 100% throughout. In addition, the “YFM % Control (or Mortality) rating” value in series [2] was “A (80-100)”. The mortality at 200 ppm in series [3] lay within 80 to 100%.
Regarding `O=C(NOc1ccccc1)c1cc(NC(=O)[C@H]2[C@H](c3cc(Cl)cc(Cl)c3)C2(Cl)Cl)ccc1Cl` (relative stereo) [F29, trans-2-chloro-5-(2,2-dichloro-3-(3,5-dichlorophenyl)cyclopropane-1-carboxamido)-N-phenoxybenzamide], the mortality at 50 µg/cm2 in series [1] and in series [4] was 0% each time. Besides, in series [2], the “YFM % Control (or Mortality) rating” value was “A (80-100)”. Also, in series [3], the mortality at 200 ppm lay within 0 to 80%.
`CC(C)CNC(=O)c1cc(NC(=O)[C@H]2[C@H](c3cc(Cl)cc(Cl)c3)C2(Cl)Cl)ccc1Cl` (relative stereo) [F30, trans-2-chloro-5-(2,2-dichloro-3-(3,5-dichlorophenyl)cyclopropane-1-carboxamido)-N-isobutylbenzamide]: the mortality at 50 µg/cm2 in series [1] and in series [4] was 50 to 100% in each case. Besides, in series [2], the “YFM % Control (or Mortality) rating” value was “A (80-100)”. Besides, the mortality at 200 ppm in series [3] was in the range of 80 to 100%.
`CCCCCCNC(=O)c1cc(NC(=O)[C@H]2[C@H](c3cc(Cl)cc(Cl)c3)C2(Cl)Cl)ccc1Cl` (relative stereo) [F31, trans-2-Chloro-5-(2,2-dichloro-3-(3,5-dichlorophenyl)cyclopropane-1-carboxamido)-N-hexylbenzamide]: the mortality at 50 µg/cm2 in series [1] and in series [4] was 50 to 100% throughout. In series [2], the “YFM % Control (or Mortality) rating” value is “B (More than 0-Less than 80)”. Moreover, the mortality at 200 ppm in series [3] was in the range of 0 to 80%.
With `O=C(NCc1ccc(F)c(F)c1)c1cc(NC(=O)[C@H]2[C@H](c3cc(Cl)cc(Cl)c3)C2(Cl)Cl)ccc1Cl` (relative stereo) [F32, trans-2-Chloro-5-(2,2-dichloro-3-(3,5-dichlorophenyl)cyclopropane-1-carboxamido)-N-(3,4-difluorobenzyl)benzamide], the mortality at 50 µg/cm2 in series [1] and in series [4] was 50 to 100% each time. Besides, the “YFM % Control (or Mortality) rating” value in series [2] was “A (80-100)”. For the same compound, the mortality at 200 ppm in series [3] lay in the range of 0 to 80%.
In the case of `CCCCCNC(=O)c1cc(NC(=O)[C@H]2[C@H](c3cc(Cl)cc(Cl)c3)C2(Cl)Cl)ccc1Cl` (relative stereo) [F33, trans-2-Chloro-5-(2,2-dichloro-3-(3,5-dichlorophenyl)cyclopropane-1-carboxamido)-N-pentylbenzamide], the mortality at 50 µg/cm2 in series [1] and in series [4] was 50 to 100% throughout. Further, the “YFM % Control (or Mortality) rating” value in series [2] is reported as “A (80-100)”. Further, the mortality at 200 ppm in series [3] fell in the range of 0 to 80%.
As to `O=C(NCCOCC1CC1)c1cc(NC(=O)[C@H]2[C@H](c3cc(Cl)cc(Cl)c3)C2(Cl)Cl)ccc1Cl` (relative stereo) [F43, trans-2-Chloro-N-(2-(cyclopropylmethoxy)ethyl)-5-(2,2-dichloro-3-(3,5-dichlorophenyl)cyclopropane-1-carboxamido)benzamide], the mortality at 50 µg/cm2 in series [1] and in series [4] was 50 to 100% in each case. The mortality at 200 ppm in series [3] lay in the range of 80 to 100%.
With `O=C(NOCc1ccc(F)cc1)c1cc(NC(=O)C2C(c3cc(Cl)c(Cl)c(Cl)c3)C2(Cl)Cl)ccc1Cl` (stereo not drawn) [F18, trans-N-2-Chloro-5-(2,2-dichloro-3-(3,4,5-trichlorophenyl)cyclopropane-1-carboxamido)-N-((4-fluorobenzyl)oxy)benzamide], the mortality at 50 µg/cm2 in series [1] and in series [4] was 50 to 100% in each case. The mortality at 200 ppm in series [3] fell in the range of 0 to 80%.
As for `O=C(NCC(F)(F)F)c1cc(NC(=O)C2C(c3cc(F)c(F)c(F)c3)C2(Cl)Cl)ccc1Cl` (stereo not drawn) [F126, 2-Chloro-5-trans-(2,2-dichloro-3-(3,4,5-trifluorophenyl)cyclopropane-1-carboxamido)-N-(2,2,2-trifluoroethyl)benzamide], the mortality at 50 µg/cm2 in series [1] and in series [4] was 50 to 100% each time. The “YFM % Control (or Mortality) rating” value in series [2] was “A (80-100)”.
